Results from US6878722B2, “Substituted cycloalkyl P1′ hepatitis C virus inhibitors” (Bristol-Myers Squibb Company, priority 2002, dated 2005).
pIC50: −log10 of the molar value.

Columns and labels:
Assay type in all cases: biochemical
[1] = molecular target: T1, HCV NS3/4A protease complex (J4L6S strain, 1b genotype) (Hepatitis C virus genotype 1b, UniProt O92972, C1454S/C1711G); assay: Recombinant HCV NS3/4A protease complex FRET peptide assay, J4L6S strain
T1 construct: DNA encoding the recombinant HCV NS3/4A protease complex (amino acids 1027 to 1711) for these strains; inferred from the pET21b vector and Ni-NTA purification; made in house; host or cells: Escherichia coli BL21 (DE3), pET21b
T1 sequence (O92972 1027-1711 C1454S/C1711G, one chain of several): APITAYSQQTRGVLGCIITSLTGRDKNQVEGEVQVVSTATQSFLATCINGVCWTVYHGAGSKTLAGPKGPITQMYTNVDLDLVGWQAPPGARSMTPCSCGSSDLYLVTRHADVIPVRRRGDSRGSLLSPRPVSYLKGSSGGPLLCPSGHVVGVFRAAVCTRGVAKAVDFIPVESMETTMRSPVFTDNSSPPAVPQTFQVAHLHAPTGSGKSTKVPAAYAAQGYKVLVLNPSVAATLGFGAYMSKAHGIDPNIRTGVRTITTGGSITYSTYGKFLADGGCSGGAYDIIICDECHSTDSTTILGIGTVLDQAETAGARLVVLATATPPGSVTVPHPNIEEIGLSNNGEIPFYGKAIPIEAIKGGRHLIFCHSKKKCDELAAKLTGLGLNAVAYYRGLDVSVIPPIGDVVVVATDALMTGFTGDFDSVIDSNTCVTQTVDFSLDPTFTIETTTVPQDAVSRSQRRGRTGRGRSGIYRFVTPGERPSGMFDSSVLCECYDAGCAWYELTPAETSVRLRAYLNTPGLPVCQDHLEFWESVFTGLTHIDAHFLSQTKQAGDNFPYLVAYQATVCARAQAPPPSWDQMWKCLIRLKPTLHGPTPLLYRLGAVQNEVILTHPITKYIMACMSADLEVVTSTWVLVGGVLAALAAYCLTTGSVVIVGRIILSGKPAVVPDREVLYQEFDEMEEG
Description: The purpose of this in vitro assay was to measure the inhibition of HCV NS3 protease complexes, derived from the BMS, H77C or J416S strains, as described below, by compounds of the present invention.
Serum from an HCV-infected patient was obtained from Dr. T. Wright, San Francisco Hospital. An engineered full-length cDNA (compliment deoxyribonucleic acid) template of the HCV genome (BMS strain) was constructed from DNA fragments obtained by reverse transcription-PCR (RT-PCR) of serum RNA (ribonucleic acid) and using primers selected on the basis of homology between other genotype 1a strains. […] The infectious clones, H77C (1a genotype) and J4L6S (1b genotype) were obtained from R. Purcell (NIH) and the sequences are published in Genbank (AAB67036, see Yanagi,M., Purcell,R. H., Emerson,S. U. and Bukh,J. Proc. Natl. Acad. Sci. U.S.A. 94(16),8738-8743 (1997); AF054247, see Yanagi,M., St Claire,M., Shapiro,M., Emerson,S. U., Purcell,R. H. and Bukh,J, Virology 244 (1), 161-172. (1998)).
The BMS, H77C and J4L6S strains were used for production of recombinant NS3/4A protease complexes. DNA encoding the recombinant HCV NS3/4A protease complex (amino acids 1027 to 1711) for these strains were manipulated as described by P. Gallinari et al. (see Gallinari P, Paolini C, Brennan D, Nardi C, Steinkuhler C, De Francesco R. Biochemistry. 38(17):5620-32, (1999)). […]

[2] = molecular target: T2, human sputum elastase (HS) (Homo sapiens, UniProt P08246); assay: Specificity assay, human sputum elastase; conditions: 2 hr pre-incubation
T2 construct: purchased Sigma
T2 sequence (P08246 30-267): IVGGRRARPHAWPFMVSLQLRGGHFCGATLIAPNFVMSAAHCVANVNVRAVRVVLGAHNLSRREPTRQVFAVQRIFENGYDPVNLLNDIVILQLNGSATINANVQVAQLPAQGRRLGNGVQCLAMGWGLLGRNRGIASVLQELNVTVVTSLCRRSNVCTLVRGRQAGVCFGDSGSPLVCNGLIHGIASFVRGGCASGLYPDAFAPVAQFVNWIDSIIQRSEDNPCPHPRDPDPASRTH

[3] = molecular target: T3, porcine pancreatic elastase (PPE) (Sus scrofa, UniProt P00772); assay: Specificity assay, porcine pancreatic elastase; conditions: 2 hr pre-incubation
T3 construct: purchased Sigma
T3 sequence (P00772 27-266): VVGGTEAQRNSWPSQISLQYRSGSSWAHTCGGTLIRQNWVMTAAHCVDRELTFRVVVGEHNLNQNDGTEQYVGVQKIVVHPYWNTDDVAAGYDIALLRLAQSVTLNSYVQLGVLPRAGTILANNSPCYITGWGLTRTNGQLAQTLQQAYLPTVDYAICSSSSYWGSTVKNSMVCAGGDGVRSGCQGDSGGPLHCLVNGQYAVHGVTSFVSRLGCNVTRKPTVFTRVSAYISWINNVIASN
Method: (§1) The specificities of compounds of the present invention were determined against a variety of serine proteases: human sputum elastase (HS), porcine pancreatic elastase (PPE) and human pancreatic chymotrypsin and one cysteine protease: human liver cathepsin B. In all cases a 96-well plate format protocol using colorimetric p-nitroaniline (pNA) substrate specific for each enzyme was used as described previously (Patent WO 00/09543) with some modifications to the serine protease assays. All enzymes were purchased from Sigma while the substrates were from Bachem.
(§2) Each assay included a 2 hr enzyme-inhibitor pre-incubation at room temperature followed by addition of substrate and hydrolysis to ˜30% conversion as measured on a Spectramax Pro microplate reader. Compound concentrations varied from 100 to 0.4 μM depending on their potency. […]
(§3) The percentage of inhibition was calculated using the formula: [1−((UVinh−UVblank)/(UVctl−UVblank))]×100 […]

human liver cathepsin B = molecular target: T4, human liver cathepsin B (Homo sapiens, UniProt P07858); assay: Specificity assay, cathepsin B; conditions: 2 hr pre-incubation
T4 construct: purchased Sigma
Method: as §1, §2, §3

## C=CC1C[C@]1(NC(=O)[C@@H]1C[C@@H](Oc2cc(-c3ccccc3)nc3cc(OC)ccc23)CN1C(=O)[C@@H](NC(=O)OC(C)(C)C)C(C)(C)C)C(=O)NS(=O)(=O)C1(C)CC1 (stereo in doubt) [Compound 1, (1-{4-(7-Methoxy-2-phenylquinolin-4-yloxy)-2-[1-(1-methylcyclopropanesulfonylaminocarbonyl)-2-vinylcyclopropylcarbamoyl]pyrrolidine-1-carbonyl}-2,2-dimethylpropyl)carbamic acid tert-butyl ester]
[1]
  pIC50: 8.96
[2]
  pIC50: 4.37
[3]
  pIC50: < 4.00
Human liver cathepsin B
  pIC50: < 4.00
